{
  "source": "patent US20060275294A1",
  "about": "“METHOD OF PREVENTION AND TREATMENT OF AGING, AGE-RELATED DISORDERS AND/OR AGE-RELATED MANIFESTATIONS INCLUDING ATHEROSCLEROSIS, PERIPHERAL VASCULAR DISEASE, CORONARY ARTERY DISEASE, OSTEOPOROSIS, ARTHRITIS, TYPE 2 DIABETES, DEMENTIA, ALZHEIMERS DISEASE AND CANCER” (priority 2002, published 2006)",
  "origin": "cited, not measured here",
  "key": {"[1]": {"molecular_target": "isopentenyl diphosphate isomerase (Homo sapiens, UniProt Q13907)", "sequence (Q13907 whole entry)": "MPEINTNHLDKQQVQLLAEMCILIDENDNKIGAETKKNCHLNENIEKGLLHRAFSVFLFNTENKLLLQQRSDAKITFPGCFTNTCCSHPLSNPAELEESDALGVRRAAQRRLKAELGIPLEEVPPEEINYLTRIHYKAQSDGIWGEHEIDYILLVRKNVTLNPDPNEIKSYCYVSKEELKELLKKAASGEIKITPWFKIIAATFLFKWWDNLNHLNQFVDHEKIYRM", "conditions": "cited from earlier work"}, "GGPP synthase": {"molecular_target": "GGPP synthase (Homo sapiens, UniProt O95749)", "sequence (O95749 whole entry, species assumed)": "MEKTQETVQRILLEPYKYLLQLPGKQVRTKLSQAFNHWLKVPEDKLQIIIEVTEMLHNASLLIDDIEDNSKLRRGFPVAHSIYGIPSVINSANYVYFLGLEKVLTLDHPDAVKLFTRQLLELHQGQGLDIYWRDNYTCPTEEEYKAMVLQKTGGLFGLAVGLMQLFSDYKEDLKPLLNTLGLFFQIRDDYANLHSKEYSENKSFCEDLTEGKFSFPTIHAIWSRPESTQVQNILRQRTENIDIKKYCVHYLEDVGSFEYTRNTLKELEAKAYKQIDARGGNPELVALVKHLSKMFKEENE", "conditions": "cited from earlier work"}, "[2]": {"molecular_target": "Recombinant human farnesyl diphosphate synthase (Homo sapiens, UniProt P14324)", "sequence (P14324 whole entry)": "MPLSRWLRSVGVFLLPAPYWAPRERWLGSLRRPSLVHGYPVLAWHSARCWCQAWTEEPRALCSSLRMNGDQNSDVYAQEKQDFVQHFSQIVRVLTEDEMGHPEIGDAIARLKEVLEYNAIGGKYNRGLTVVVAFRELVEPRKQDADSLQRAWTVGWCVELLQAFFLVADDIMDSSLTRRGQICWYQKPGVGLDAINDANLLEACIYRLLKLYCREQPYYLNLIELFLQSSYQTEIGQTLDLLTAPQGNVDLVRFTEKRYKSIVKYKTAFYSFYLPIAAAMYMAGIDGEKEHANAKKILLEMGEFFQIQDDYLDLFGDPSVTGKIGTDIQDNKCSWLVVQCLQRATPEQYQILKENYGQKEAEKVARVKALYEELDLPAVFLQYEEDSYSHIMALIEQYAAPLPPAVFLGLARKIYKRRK", "conditions": "cited from earlier work"}, "[3]": {"test_system": "human T, B and myeloma tumor cells", "conditions": "by promoting apoptosis; cited from earlier work"}, "[4]": {"test_system": "rat primary astrocytes, microglia, and macrophages", "conditions": "cited from earlier work"}, "[5]": {"test_system": "human monocytic THP-1 cells", "conditions": "10 microM, 24 h pretreatment; cited from earlier work"}, "[6]": {"test_system": "interleukin (IL)-6 bioactivity", "conditions": "cited from earlier work"}, "NF-kappaB": {"test_system": "NF-kappaB", "conditions": "pretreatment, rat VSMCs; cited from earlier work"}},
  "data": [
    {"smiles": "NCCCC(O)(P(=O)(O)O)P(=O)(O)O", "note": "[alendronate]", "values": [
      {"measurement": "inhibition of isopentenyl diphosphate isomerase", "setting": "[1]", "result": "did not inhibit"},
      {"measurement": "inhibition of GGPP synthase", "setting": "GGPP synthase", "result": "did not inhibit"}
    ]},
    {"smiles": "O=P(O)(O)C(Cl)(Cl)P(=O)(O)O", "note": "[clodronate]", "values": [
      {"measurement": "inhibition of recombinant farnesyl diphosphate synthase", "setting": "[2]", "result": "not at all"}
    ]},
    {"smiles": "CC[C@H](C)C(=O)O[C@H]1C[C@@H](C)C=C2C=C[C@H](C)[C@H](CC[C@@H]3C[C@@H](O)CC(=O)O3)[C@H]21", "note": "[lovastatin]", "values": [
      {"measurement": "effect on human T, B and myeloma tumor cells", "setting": "[3]", "result": "cytotoxic effect"},
      {"measurement": "LPS-mediated activation of NF kappa B", "setting": "[4]; astrocytes", "result": "Inhibition"},
      {"measurement": "LPS-induced expression of TNF-alpha, IL-1beta, and IL-6", "setting": "[4]; rat primary astrocytes, microglia, macrophages", "result": "inhibited"},
      {"measurement": "LPS and cytokine-mediated production of NO and expression of iNOS", "setting": "[4]; rat primary astrocytes", "result": "inhibit"},
      {"measurement": "hydrogen peroxide (H2O2) generation", "setting": "[5]", "result": "markedly suppressed"}
    ]},
    {"smiles": "O=c1c(-c2ccc(O[C@@H]3O[C@H](CO)[C@@H](O)[C@H](O)[C@H]3O)cc2)coc2cc(O)cc(O)c12", "note": "[Sophoricoside]", "values": [
      {"measurement": "IC50", "setting": "[6]", "result": 6.1, "unit": "µM"}
    ]},
    {"smiles": "Cc1ccc(S(=O)(=O)N[C@@H](Cc2ccccc2)C(=O)CCl)cc1", "note": "[TPCK]", "values": [
      {"measurement": "Sar1 Ang II-induced NF-kappaB activation and induction of endogenous IL-6 gene expression", "setting": "NF-kappaB", "result": "completely blocked"}
    ]}
  ]
}
